One test has as its system Helminthosporium gram. The settings on record: 50 g active agent per 100 kg; about 5 weeks.
The test system of a further test is Botrytis cinerea. As to the kind of experiment: Prophylactic leaf treatment of tomato plants against Botrytis cinerea. As to conditions: concentration of 0.025 of the active agent (unit not given). In kind it is in vivo.
A further test relates to Tilletia caries. As to the kind of experiment: Treatment of oat seeds infested with Tilletia caries (spore germination). In kind it is in vivo.
Another test has as its system Plasmopara viticola. The experiment in a line: Prophylactic leaf treatment of grapevines in the hothouse against Plasmopara viticola. Type of test: in vivo. The method, boiled down: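 Grapevines (5–8 leaves) sprayed to runoff with compound as 20% spray powder, then after drying inoculated on leaf undersides with sporangial suspension (~20,000/ml). Incubated at 22–24 °C, saturated humidity, 3–4 days normal humidity (30–70%), then one day saturated; activity from mean % infested leaf area per treatment.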

In another test the test system is Fusarium avenaceum. As to the kind of experiment: Threshold concentration test in case of Fusarium avenaceum (infested soil, garden peas). The settings on record: for number of sound peas: 20 grains per dish, 18 days at 20-24° C.; for root evaluation (1-4): 18 days. In kind it is in vivo. The method, boiled down:
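Soil heavily infested with Fusarium avenaceum was mixed uniformly with a 20% powder formulation of active agent, then sown immediately with 20 garden pea seeds ('Wunder von Kelvedon') per dish. After 18 days in a greenhouse at 20° to 24° C., sound plants were counted and roots scored on a 1–4 scale.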

The next test has as its system Pythium ultimum. As to the kind of experiment: Threshold concentration test for use of the compounds against Pythium ultimum (infested soil, garden peas). Type of test: in vivo. The arrangement: key to root evaluation (1-4): 4: white roots without fungous necrosis; 3: white roots, minor fungous necrosis; 2: brown roots, already more pronounced fungous necrosis; 1: heavy fungous necrosis, roots rotted. The settings on record: for root evaluation (1-4): 3 weeks; for number of sound peas: 20 grains per dish, 3 weeks at 20-24° C. The method, boiled down: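 Pulverulent agents at 20% concentration mixed evenly into soil heavily infested with Pythium ultimum, then garden peas ('Wunder von Kelvedon', 20 per dish) sown at once. After three weeks at 20–24 °C in a hothouse, sound peas counted and roots scored on a 1–4 scale.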

[1] abbreviates: concentration of active agent 0.025 (unit not given).
[2] abbreviates: concentration of active agent 0.005 (unit not given).
[3] abbreviates: concentration of active agent 0.001 (unit not given).

Procedure for Helminthosporium gram: Treatment of barley seeds infested with Helminthosporium gram
After emergence, the plants were subjected to illumination for 12 hours per day. After about 5 weeks the infested plants were counted and the total number of plants for each test were also counted. The active agents tested were used as pulverulent compositions.

On to `CCS(=O)(=O)c1nnc(C(=O)NC2CCCCCCC2)s1` [5-ethylsulfonyl-1,3,4-thiadiazole-2-carboxylic acid-cyclooctylamide], for which the “% activity” value with Helminthosporium gram was 98%; in the test on Botrytis cinerea, 93%; in the test with Tilletia caries (10 g active agent per 100 kg) it was 100%; in the test on Tilletia caries (20 g active agent per 100 kg), 100%; with Tilletia caries (50 g active agent per 100 kg), 100%.
Turning to `CCCCCCCCNC(=O)c1nnc(S(=O)(=O)CC)s1` [5-ethylsulfonyl-1,3,4-thiadiazole-2-carboxylic acid-octylamide], the “% activity” value was 90% in the test with Plasmopara viticola (setting [1]); 87% with Botrytis cinerea; 91% in the test with Tilletia caries (10 g active agent per 100 kg); 93% in the test with Tilletia caries (20 g active agent per 100 kg); 98% in the test on Tilletia caries (50 g active agent per 100 kg).
With `CCCCCCS(=O)(=O)c1nnc(C#N)s1` [5-hexylsulfonyl-1,3,4-thiadiazole-2-carbonitrile], the “number of sound peas” value in the test with Fusarium avenaceum (25 mg/l soil), in the test on Fusarium avenaceum (50 mg/l soil) and in the test on Fusarium avenaceum (100 mg/l soil) was 19 in each case. Besides, the “root evaluation (1-4)” value with Fusarium avenaceum (25 mg/l soil), with Fusarium avenaceum (50 mg/l soil) and in the test with Fusarium avenaceum (100 mg/l soil) was 4 in each case. Also, the entries for the “% activity” value in the test on Plasmopara viticola (setting [1]), in the test with Botrytis cinerea and with Tilletia caries (50 g active agent per 100 kg) were 90%, 86% and 90%, respectively.
On to `CCCCCCS(=O)(=O)c1nnc(C(N)=O)s1` [5-hexylsulfonyl-1,3,4-thiadiazole-2-carboxamide], for which the “number of sound peas” value was found to be 7 in the test with Fusarium avenaceum (25 mg/l soil), 12 in the test with Fusarium avenaceum (50 mg/l soil) and 15 in the test on Fusarium avenaceum (100 mg/l soil). Besides, the “root evaluation (1-4)” value in the test on Fusarium avenaceum (25 mg/l soil) stood at 1; in the test with Fusarium avenaceum (50 mg/l soil), 2; with Fusarium avenaceum (100 mg/l soil), 3. Also, the results for the “% activity” value in the test with Plasmopara viticola (setting [1]), in the test with Botrytis cinerea and in the test on Tilletia caries (50 g active agent per 100 kg) were 90%, 87% and 98%, respectively.
As for `CS(=O)(=O)c1nnc(C(=O)NC2CC2)s1` [5-methylsulfonyl-1,3,4-thiadiazole-2-carboxylic acid-cyclopropylamide], the entries for the “% activity” value in the test on Botrytis cinerea, with Tilletia caries (20 g active agent per 100 kg) and in the test on Tilletia caries (50 g active agent per 100 kg) were 75%, 98% and 100%, respectively. Further, the figures for the “root evaluation (1-4)” value with Pythium ultimum (20 mg/l soil), with Pythium ultimum (40 mg/l soil) and with Pythium ultimum (80 mg/l soil) were 1, 4 and 4, respectively. In addition, the “number of sound peas” value in the test on Pythium ultimum (20 mg/l soil) came out at 13; with Pythium ultimum (40 mg/l soil) it was 20; in the test on Pythium ultimum (80 mg/l soil) it was 20.
On to `CCCCCS(=O)(=O)c1nnc(C#N)s1` [5-pentylsulfonyl-1,3,4-thiadiazole-2-carbonitrile], for which the “number of sound peas” value in the test on Fusarium avenaceum (25 mg/l soil) amounted to 20; in the test on Fusarium avenaceum (50 mg/l soil), 20; with Fusarium avenaceum (100 mg/l soil) it was 19. The “root evaluation (1-4)” value in the test on Fusarium avenaceum (25 mg/l soil), with Fusarium avenaceum (50 mg/l soil) and with Fusarium avenaceum (100 mg/l soil) was 4 each time. The “% activity” value in the test on Plasmopara viticola (setting [1]) was 90%; in the test on Botrytis cinerea, 86%; in the test with Tilletia caries (50 g active agent per 100 kg) it was 90%.
Consider `CCCCCS(=O)(=O)c1nnc(C(N)=O)s1` [5-pentylsulfonyl-1,3,4-thiadiazole-2-carboxamide], for which the “number of sound peas” value turned out to be 9 in the test with Fusarium avenaceum (25 mg/l soil), 16 in the test on Fusarium avenaceum (50 mg/l soil) and 18 in the test on Fusarium avenaceum (100 mg/l soil). The “root evaluation (1-4)” value with Fusarium avenaceum (25 mg/l soil) is reported as 2; with Fusarium avenaceum (50 mg/l soil), 3; in the test with Fusarium avenaceum (100 mg/l soil), 4. Further, the “% activity” value is 87% in the test on Botrytis cinerea and 80% in the test with Tilletia caries (50 g active agent per 100 kg).
In the case of `CCCCNC(=O)c1nnc([S+]([O-])CCC)s1` (stereo not drawn) [5-propylsulfinyl-1,3,4-thiadiazole-2-carboxylic acid-butylamide], the “% activity” value is given as 91% in the test with Plasmopara viticola (setting [2]); 99.1% with Plasmopara viticola (setting [1]); 80% in the test with Botrytis cinerea; 100% in the test with Tilletia caries (20 g active agent per 100 kg); 100% in the test with Tilletia caries (50 g active agent per 100 kg).
Consider `CCC[S+]([O-])c1nnc(C(=O)N(C)C)s1` (stereo not drawn) [5-propylsulfinyl-1,3,4-thiadiazole-2-carboxylic acid-dimethylamide], for which the “% activity” value in the test on Helminthosporium gram stood at 100%; in the test on Botrytis cinerea, 80%; in the test with Tilletia caries (20 g active agent per 100 kg), 100%; in the test on Tilletia caries (50 g active agent per 100 kg), 100%. Further, the “root evaluation (1-4)” value in the test with Pythium ultimum (20 mg/l soil) turned out to be 1; in the test on Pythium ultimum (40 mg/l soil) it was 4; with Pythium ultimum (80 mg/l soil) it was 4. The “number of sound peas” value in the test with Pythium ultimum (20 mg/l soil) came out at 12; in the test on Pythium ultimum (40 mg/l soil), 18; in the test on Pythium ultimum (80 mg/l soil), 19.
`CCCCCCNC(=O)c1nnc([S+]([O-])CCC)s1` (stereo not drawn) [5-propylsulfinyl-1,3,4-thiadiazole-2-carboxylic acid-hexylamide]: the “% activity” value in the test with Plasmopara viticola (setting [3]) came out at 95%; with Plasmopara viticola (setting [2]) it was 99.1%; in the test with Plasmopara viticola (setting [1]), 100%; in the test with Botrytis cinerea, 80%; with Tilletia caries (20 g active agent per 100 kg), 100%; in the test with Tilletia caries (50 g active agent per 100 kg), 100%.
For the compound `CCC[S+]([O-])c1nnc(C(=O)NC(C)CC)s1` (stereo not drawn) [5-propylsulfinyl-1,3,4-thiadiazole-2-carboxylic acid-sec.-butylamide], the “number of sound peas” value is on record as 9 with Fusarium avenaceum (25 mg/l soil), 17 in the test on Fusarium avenaceum (50 mg/l soil) and 17 in the test with Fusarium avenaceum (100 mg/l soil). For the same compound, the “root evaluation (1-4)” value came to 1 with Fusarium avenaceum (25 mg/l soil), 4 in the test with Fusarium avenaceum (50 mg/l soil) and 4 in the test on Fusarium avenaceum (100 mg/l soil). Further, the “% activity” value is recorded as 94% with Helminthosporium gram; 86% with Plasmopara viticola (setting [3]); 92% with Plasmopara viticola (setting [2]); 92% with Plasmopara viticola (setting [1]); 80% in the test with Botrytis cinerea; 100% in the test on Tilletia caries (20 g active agent per 100 kg). Further, in the test on Tilletia caries (50 g active agent per 100 kg), the “% activity” value is given as 100%.
Take `CCCS(=O)(=O)c1nnc(C(N)=O)s1` [5-propylsulfonyl-1,3,4-thiadiazole-2-carboxamide]: the “% activity” value with Plasmopara viticola (setting [2]) is 89%; with Plasmopara viticola (setting [1]), 95%; in the test with Botrytis cinerea, 94%; in the test on Tilletia caries (10 g active agent per 100 kg) it was 100%; in the test with Tilletia caries (20 g active agent per 100 kg), 100%; with Tilletia caries (50 g active agent per 100 kg) it was 100%. In addition, the “root evaluation (1-4)” value in the test with Pythium ultimum (20 mg/l soil) was determined as 1; with Pythium ultimum (40 mg/l soil), 4; in the test on Pythium ultimum (80 mg/l soil) it was 4. In addition, the “number of sound peas” value with Pythium ultimum (20 mg/l soil) is 12; with Pythium ultimum (40 mg/l soil), 19; in the test with Pythium ultimum (80 mg/l soil), 17.
For the compound `CCCS(=O)(=O)c1nnc(C(=O)N2CCC2)s1` [5-propylsulfonyl-1,3,4-thiadiazole-2-carboxylic acid-N,N-trimethyleneamide], the “number of sound peas” value came to 11 with Fusarium avenaceum (25 mg/l soil); 17 in the test on Fusarium avenaceum (50 mg/l soil); 17 in the test on Fusarium avenaceum (100 mg/l soil); 6 with Pythium ultimum (20 mg/l soil); 19 in the test on Pythium ultimum (40 mg/l soil); 18 in the test with Pythium ultimum (80 mg/l soil). The “root evaluation (1-4)” value with Fusarium avenaceum (25 mg/l soil) was 2; in the test on Fusarium avenaceum (50 mg/l soil), 3; in the test on Fusarium avenaceum (100 mg/l soil), 3; in the test on Pythium ultimum (20 mg/l soil), 1; in the test with Pythium ultimum (40 mg/l soil), 4; in the test on Pythium ultimum (80 mg/l soil), 4. For the same compound, the “% activity” value with Botrytis cinerea is listed as 87%; with Tilletia caries (50 g active agent per 100 kg), 100%.
In the case of `CCCS(=O)(=O)c1nnc(C(=O)NC)s1` [5-propylsulfonyl-1,3,4-thiadiazole-2-carboxylic acid-methylamide], the “% activity” value with Botrytis cinerea amounted to 88%; in the test on Tilletia caries (10 g active agent per 100 kg), 99.5%; with Tilletia caries (20 g active agent per 100 kg), 99.5%; in the test with Tilletia caries (50 g active agent per 100 kg), 100%. The “root evaluation (1-4)” value in the test with Pythium ultimum (20 mg/l soil), in the test with Pythium ultimum (40 mg/l soil) and with Pythium ultimum (80 mg/l soil) was 4 in each case. Moreover, the “number of sound peas” value is 19 in the test with Pythium ultimum (20 mg/l soil), 16 in the test on Pythium ultimum (40 mg/l soil) and 15 in the test on Pythium ultimum (80 mg/l soil).
Consider `CCCNC(=O)c1nnc(S(=O)(=O)CCC)s1` [5-propylsulfonyl-1,3,4-thiadiazole-2-carboxylic acid-propylamide], for which the “% activity” value stood at 93% in the test on Plasmopara viticola (setting [1]); 80% in the test with Botrytis cinerea; 99.5% in the test on Tilletia caries (10 g active agent per 100 kg); 99.7% in the test on Tilletia caries (20 g active agent per 100 kg); 100% with Tilletia caries (50 g active agent per 100 kg). The “root evaluation (1-4)” value in the test with Pythium ultimum (20 mg/l soil) was determined as 1; in the test with Pythium ultimum (40 mg/l soil), 4; in the test with Pythium ultimum (80 mg/l soil), 4. Moreover, the “number of sound peas” value in the test on Pythium ultimum (20 mg/l soil) is reported as 10; in the test with Pythium ultimum (40 mg/l soil), 16; in the test on Pythium ultimum (80 mg/l soil) it was 16.
